This experiment has as its target T1, αvβ3 (vitronectin receptor) (Homo sapiens, UniProt P05106+P06756).
T1 construct: Human placenta or human platelet αvβ3 (0.1-0.3 mg/mL) in buffer T; from tissue; host or cells: human placenta or human platelets
The experiment can be described thus: Solid-Phase [3H]-SK&F-107260 Binding to αvβ3. To be noted: read-out: concentration at which the compound inhibits vitronectin binding to SK&F 107260. On the procedure: Solid-Phase [^3H]-SK&F-107260 Binding to αvβ3: Human placenta or human platelet αvβ3 (0.1-0.3 mg/mL) in buffer T (containing 2 mM CaCl2 and 1% octylglucoside) was diluted with buffer T containing 1 mM CaCl2, 1 mM MnCl2, 1 mM MgCl2 (buffer A) and 0.05% NaN3, and then immediately added to 96-well ELISA plates (Corning, New York, N.Y.) at 0.1 mL per well. 0.1-0.2 μg of αvβ3 was added per well. The plates were incubated overnight at 4° C. At the time of the experiment, the wells were washed once with buffer A and were incubated with 0.1 mL of 3.5% bovine serum albumin in the same buffer for 1 hr at room temperature. Following incubation the wells were aspirated completely and washed twice with 0.2 mL buffer A. […]
The plates were incubated for 1 hr at room temperature. […] The receptors were solubilized with 0.1 mL of 1% SDS and the bound [^3H]-SK&F-107260 was determined by liquid scintillation counting with the addition of 3 mL Ready Safe in a Beckman LS Liquid Scintillation Counter, with 40% efficiency. Nonspecific binding of [^3H]-SK&F-107260 was determined in the presence of 2 μM SK&F-107260 and was consistently less than 1% of total radioligand input. […] The Ki (dissociation constant of the antagonist) was calculated according to the equation: Ki=IC50/(1+L/Kd), where L and Kd were the concentration and the dissociation constant of [^3H]-SK&F-107260, respectively.

T1 sequence (P06756 31-889 limits assumed): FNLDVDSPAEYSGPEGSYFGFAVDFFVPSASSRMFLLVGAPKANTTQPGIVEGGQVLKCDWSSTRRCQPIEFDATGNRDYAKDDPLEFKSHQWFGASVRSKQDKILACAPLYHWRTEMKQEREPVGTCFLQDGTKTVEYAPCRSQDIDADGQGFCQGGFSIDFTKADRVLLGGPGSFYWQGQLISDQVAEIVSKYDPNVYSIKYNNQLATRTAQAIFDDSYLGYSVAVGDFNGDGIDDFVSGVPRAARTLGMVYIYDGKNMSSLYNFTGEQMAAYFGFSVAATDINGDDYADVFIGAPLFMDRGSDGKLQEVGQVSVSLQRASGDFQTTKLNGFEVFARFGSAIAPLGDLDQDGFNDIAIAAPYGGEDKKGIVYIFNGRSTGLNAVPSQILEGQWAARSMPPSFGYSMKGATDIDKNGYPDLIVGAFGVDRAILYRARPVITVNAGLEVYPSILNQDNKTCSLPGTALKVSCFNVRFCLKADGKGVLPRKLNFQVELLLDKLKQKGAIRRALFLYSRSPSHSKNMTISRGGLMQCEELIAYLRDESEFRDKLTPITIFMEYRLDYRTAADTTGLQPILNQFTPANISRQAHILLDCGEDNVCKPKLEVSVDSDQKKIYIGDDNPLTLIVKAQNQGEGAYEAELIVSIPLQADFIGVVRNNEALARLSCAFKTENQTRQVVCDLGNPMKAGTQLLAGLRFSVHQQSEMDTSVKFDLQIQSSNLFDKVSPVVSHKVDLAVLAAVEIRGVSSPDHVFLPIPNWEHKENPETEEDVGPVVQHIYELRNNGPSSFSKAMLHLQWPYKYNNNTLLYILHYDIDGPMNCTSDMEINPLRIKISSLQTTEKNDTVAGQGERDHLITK
T1 sequence (P06756 891-1048 partner limits assumed): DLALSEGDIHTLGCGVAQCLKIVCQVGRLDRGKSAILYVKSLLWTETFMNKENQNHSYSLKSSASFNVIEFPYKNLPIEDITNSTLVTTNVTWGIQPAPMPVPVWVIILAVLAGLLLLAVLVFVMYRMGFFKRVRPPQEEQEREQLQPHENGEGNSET
T1 sequence (P05106 27-788): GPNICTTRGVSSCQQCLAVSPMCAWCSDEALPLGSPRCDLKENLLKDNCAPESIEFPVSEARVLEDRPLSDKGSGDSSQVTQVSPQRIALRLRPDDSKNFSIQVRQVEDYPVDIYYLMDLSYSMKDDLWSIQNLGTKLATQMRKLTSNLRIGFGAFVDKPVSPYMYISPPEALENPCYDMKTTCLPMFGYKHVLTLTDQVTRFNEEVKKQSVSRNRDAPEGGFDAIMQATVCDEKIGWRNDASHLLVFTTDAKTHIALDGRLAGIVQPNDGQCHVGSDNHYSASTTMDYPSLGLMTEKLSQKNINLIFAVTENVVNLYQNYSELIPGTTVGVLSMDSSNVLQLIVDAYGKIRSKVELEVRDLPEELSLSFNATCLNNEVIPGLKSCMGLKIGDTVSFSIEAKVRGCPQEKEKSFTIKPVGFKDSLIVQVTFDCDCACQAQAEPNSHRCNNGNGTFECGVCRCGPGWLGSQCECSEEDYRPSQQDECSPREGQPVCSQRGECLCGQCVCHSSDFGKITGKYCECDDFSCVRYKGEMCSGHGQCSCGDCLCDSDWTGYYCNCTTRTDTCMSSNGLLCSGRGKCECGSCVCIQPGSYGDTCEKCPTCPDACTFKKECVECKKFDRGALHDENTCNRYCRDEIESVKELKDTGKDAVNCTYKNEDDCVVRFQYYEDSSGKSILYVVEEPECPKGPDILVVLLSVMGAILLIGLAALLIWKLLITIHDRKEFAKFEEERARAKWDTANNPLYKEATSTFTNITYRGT

`O=C(O)C[C@@H]1Cc2ccc(OCCCNc3ccccn3)cc2CN(Cc2ccc(F)c(F)c2F)C1=O` [Example 1, (S)-3-oxo-8-[3-(pyridin-2-ylamino)-1-propyloxy]-2-(2,3,4-trifluorobenzyl)-2,3,4,5-tetrahydro-1H-2-benzazepine-4-acetic acid]: the IC50 is ~3 nM.

For the origin of these results see patent publication US20020019387A1, “Vitronectin receptor antagonist” (SmithKline Beecham Corporation, priority 1997, published 2002).
